In patent publication US6420131B1, “Use of fluorescein aryl ethers in high throughput cytochrome P450 inhibition assays” (Gentest Corporation, priority 1999, dated 2002):

Tests used:
[1] = biological target: T1, Rat CYP1A1 (Rattus norvegicus, UniProt P00185); experiment: Turnover of fluorometric substrates by rat CYP1A1; conditions: substrate uM: Ia 2, AMMC 20, CEC 40, MFC 50, BFC 50, BQ 40, BzRes 50; 30 min; enzyme 50 nM (2.5 nM for CEC)
T1 sequence (P00185 1-524): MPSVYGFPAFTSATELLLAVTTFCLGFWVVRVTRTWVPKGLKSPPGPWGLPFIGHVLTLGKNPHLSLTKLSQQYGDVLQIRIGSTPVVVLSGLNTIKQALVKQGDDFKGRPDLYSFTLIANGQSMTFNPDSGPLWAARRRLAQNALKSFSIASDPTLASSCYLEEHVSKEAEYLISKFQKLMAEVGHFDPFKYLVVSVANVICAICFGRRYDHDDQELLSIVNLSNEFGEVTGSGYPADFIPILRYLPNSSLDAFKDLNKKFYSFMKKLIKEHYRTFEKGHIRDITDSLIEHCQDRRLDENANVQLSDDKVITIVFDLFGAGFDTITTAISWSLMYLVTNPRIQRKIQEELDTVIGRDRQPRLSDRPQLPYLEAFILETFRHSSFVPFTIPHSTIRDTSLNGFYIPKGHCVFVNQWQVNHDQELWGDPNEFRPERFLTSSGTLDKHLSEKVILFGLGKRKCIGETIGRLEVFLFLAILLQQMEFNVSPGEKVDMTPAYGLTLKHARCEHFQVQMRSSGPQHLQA

[2] = biological target: T2, Rat CYP2D2 (Rattus norvegicus, UniProt P10634); experiment: Turnover of fluorometric substrates by rat CYP2D2
T2 sequence (P10634 1-500): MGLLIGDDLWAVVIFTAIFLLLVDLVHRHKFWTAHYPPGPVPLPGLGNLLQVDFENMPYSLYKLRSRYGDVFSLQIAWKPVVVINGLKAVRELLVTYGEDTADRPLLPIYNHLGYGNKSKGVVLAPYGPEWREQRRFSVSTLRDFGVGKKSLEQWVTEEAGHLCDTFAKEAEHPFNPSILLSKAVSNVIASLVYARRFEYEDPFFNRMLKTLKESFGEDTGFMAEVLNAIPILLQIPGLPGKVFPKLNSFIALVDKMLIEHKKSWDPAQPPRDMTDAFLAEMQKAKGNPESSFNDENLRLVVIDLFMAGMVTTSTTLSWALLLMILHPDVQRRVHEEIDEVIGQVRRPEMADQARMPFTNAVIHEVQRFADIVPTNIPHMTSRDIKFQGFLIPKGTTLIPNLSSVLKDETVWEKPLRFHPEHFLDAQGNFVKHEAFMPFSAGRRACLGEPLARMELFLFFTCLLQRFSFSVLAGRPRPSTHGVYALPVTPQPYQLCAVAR

[3] = biological target: T3, human CYP3A4 (Homo sapiens, UniProt P08684); conditions: for Range: human
[4] = tested on: panel of Human P450 enzymes; experiment: Substrate specificity, dealkylation of Compounds Ia and Ib by a panel of human P450 enzymes; assay type: biochemical; conditions: various P450s
Experimental: The specificity of several cytochrome P450 enzymes for the dealkylation of Compound Ia (FIG. 1) and Compound Ib (FIG. 2) was examined.
Example Compounds Ia and Ib. […] Final incubation volume was 0.2 ml.

[5] = biological target: T3, human CYP3A4; experiment: High throughput cytochrome P450 inhibition screen, CYP3A4; conditions: Absolute Mean IC50 Values
[6] = tested on: panel of Human P450 enzymes; experiment: Specificity of dealkylation of CMFDE and MF by a panel of human P450 enzymes; assay type: biochemical; conditions: CYP1A1 and CYP2C19; 1 uM substrate
[7] = biological target: T4, CYP2C8 (Homo sapiens, UniProt P10632); experiment: High throughput cytochrome P450 inhibition screen, CYP2C8, compound Ia as substrate
T4 sequence (P10632 1-490): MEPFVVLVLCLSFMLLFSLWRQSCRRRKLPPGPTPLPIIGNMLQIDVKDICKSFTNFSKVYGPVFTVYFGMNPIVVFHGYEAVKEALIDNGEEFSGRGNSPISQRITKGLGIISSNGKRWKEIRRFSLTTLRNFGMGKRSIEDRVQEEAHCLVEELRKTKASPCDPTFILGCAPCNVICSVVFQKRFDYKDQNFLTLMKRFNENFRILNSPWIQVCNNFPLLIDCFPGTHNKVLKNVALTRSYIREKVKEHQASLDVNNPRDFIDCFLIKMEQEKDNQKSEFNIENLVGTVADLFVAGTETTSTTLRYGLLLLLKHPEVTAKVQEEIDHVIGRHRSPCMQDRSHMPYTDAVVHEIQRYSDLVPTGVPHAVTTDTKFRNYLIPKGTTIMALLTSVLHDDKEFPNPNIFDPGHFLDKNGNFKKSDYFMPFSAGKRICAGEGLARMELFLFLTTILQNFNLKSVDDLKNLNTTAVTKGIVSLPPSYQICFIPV

[8] = biological target: T4, CYP2C8
[9] = substrate: O=C(OCc1ccccc1)c1ccccc1-c1c2ccc(=O)cc-2oc2cc(OCc3ccccc3)ccc12; experiment: Enzyme kinetics of substrate turnover by cDNA-expressed CYP2C8; assay type: biochemical, human; conditions: other: CYP2C8
Experimental: The evaluation of compounds of Formula I were performed by measuring the kinetics of turnover using cDNA-expressed cytochromes P450 CYP3A4 and CYP2C8. Vmax and Km values are important for the optimization of the assay conditions and for setting the parameters for inhibition experiments.
Example Compound Ia. […] Final incubation volume was 0.2 ml. […] The activity was quantitated by comparing to a standard curve of fluorescein. Apparent Km and Vmax values were calculated by non-linear regression using SigmaPlot software.

T3 sequence (P08684 whole entry): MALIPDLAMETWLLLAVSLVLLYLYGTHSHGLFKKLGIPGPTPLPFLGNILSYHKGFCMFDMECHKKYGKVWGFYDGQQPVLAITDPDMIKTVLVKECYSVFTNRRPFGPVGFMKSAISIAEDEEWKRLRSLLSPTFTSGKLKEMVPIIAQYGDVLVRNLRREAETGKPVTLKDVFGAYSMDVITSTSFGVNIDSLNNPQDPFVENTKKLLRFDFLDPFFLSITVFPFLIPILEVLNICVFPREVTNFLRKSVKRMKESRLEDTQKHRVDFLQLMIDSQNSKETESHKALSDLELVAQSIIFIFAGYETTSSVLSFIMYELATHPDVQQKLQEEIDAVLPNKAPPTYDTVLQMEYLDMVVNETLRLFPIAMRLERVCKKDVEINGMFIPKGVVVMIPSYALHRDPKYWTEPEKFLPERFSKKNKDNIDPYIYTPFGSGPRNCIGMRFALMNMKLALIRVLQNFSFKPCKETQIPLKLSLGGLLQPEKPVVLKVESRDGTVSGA

## CC[N+](C)(CC)CCc1c(C)c2ccc(OC)cc2oc1=O [AMMC, 3-[2-(N,N-Diethyl-N-methylamino)ethyl]-7-methoxy-4-methylcoumarin]
[1]
  Turnover Numbers, CYP1A1: —^b
[2]; CYP2D2/AMMC, conditions of Table VI
  substrate utilization: 45%
[2]; substrate uM: Ia 2, AMMC 20, CEC 40, MFC 50, BFC 50, BQ 40, BzRes 50, 30 min, enzyme 50 nM
  Turnover Numbers, CYP2D2: 5.9 pmol product/min/pmol enzyme

## NC(=O)N1c2ccccc2C=Cc2ccccc21 [Carbamazepine]
[3]
  Range: 5.3

## Clc1ccccc1C(c1ccccc1)(c1ccccc1)n1ccnc1 [Clotrimazole]
[3]
  Range: 7.9

## O=C(O)c1ccccc1-c1c2ccc(=O)cc-2oc2cc(OCc3ccccc3)ccc12 [Compound Ib, Monobenzyl Fluorescein]
[4]
  signal as a substrate: substantially less signal versus Compound Ia

## CC[C@H]1OC(=O)[C@H](C)[C@@H](O[C@H]2C[C@@](C)(OC)[C@@H](O)[C@H](C)O2)[C@H](C)[C@@H](O[C@@H]2O[C@H](C)C[C@H](N(C)C)[C@H]2O)[C@](C)(O)C[C@@H](C)C(=O)[C@H](C)[C@@H](O)[C@]1(C)O [Erythromycin]
[5]; BFC, substrate BFC
  IC50: 4.5 µM
[5]; BQ, substrate BQ
  IC50: 54.4 µM
[5]; BzRes, substrate BzRes
  IC50: 1.8 µM
[5]; Overall, mean over the substrates BzRes, BQ, BFC, Ia
  IC50: 21.5 µM

## C#C[C@]1(O)CC[C@H]2[C@@H]3CCc4cc(O)ccc4[C@H]3CC[C@@]21C [Ethynylestradiol]
[3]
  Range: 4.5

## COc1ccc2c(c1)Oc1cc(O)ccc1C21OC(=O)c2ccccc21 (centres unmarked) [MF, 3-O-methylfluorescein]
[6]
  substrate quality based on turnover number: good P450 substrate

## COCC(=O)O[C@]1(CCN(C)CCCc2nc3ccccc3[nH]2)CCc2cc(F)ccc2[C@@H]1C(C)C [Mibefradil]
[3]
  Range: 12

## Clc1ccc(COC(Cn2ccnc2)c2ccc(Cl)cc2Cl)c(Cl)c1 (centres unmarked) [Miconazole]
[3]
  Range: 11

## Cc1ncc2n1-c1ccc(Cl)cc1C(c1ccccc1F)=NC2 [Midazolam]
[3]
  Range: 48

## CC(=O)[C@H]1CC[C@H]2[C@@H]3CCC4=CC(=O)CC[C@]4(C)[C@H]3CC[C@]12C [Progesterone]
[3]
  Absolute Mean IC50 Values, BFC: Activation
  Absolute Mean IC50 Values, BzRes: Activation
[5]; BQ, substrate BQ
  IC50: > 200 µM
[5]; Ia, substrate compound Ia
  IC50: 11.5 µM

## CC(=O)O[C@H]1C(=O)[C@@]2(C)[C@H]([C@H](OC(=O)c3ccccc3)[C@]3(O)C[C@H](OC(=O)[C@H](O)[C@@H](NC(=O)c4ccccc4)c4ccccc4)C(C)=C1C3(C)C)[C@]1(OC(C)=O)CO[C@@H]1C[C@@H]2O [paclitaxel]
[7]
  inhibition of the turnover of compound Ia: inhibited the turnover of compound Ia

## Nc1ccc(S(=O)(=O)Nc2ccnn2-c2ccccc2)cc1 [sulfaphenazole]
[8]
  IC50: elevated

B1: CYP2C8 (Homo sapiens) (protein)
chain: MEPFVVLVLCLSFMLLFSLWRQSCRRRKLPPGPTPLPIIGNMLQIDVKDICKSFTNFSKVYGPVFTVYFGMNPIVVFHGYEAVKEALIDNGEEFSGRGNSPISQRITKGLGIISSNGKRWKEIRRFSLTTLRNFGMGKRSIEDRVQEEAHCLVEELRKTKASPCDPTFILGCAPCNVICSVVFQKRFDYKDQNFLTLMKRFNENFRILNSPWIQVCNNFPLLIDCFPGTHNKVLKNVALTRSYIREKVKEHQASLDVNNPRDFIDCFLIKMEQEKDNQKSEFNIENLVGTVADLFVAGTETTSTTLRYGLLLLLKHPEVTAKVQEEIDHVIGRHRSPCMQDRSHMPYTDAVVHEIQRYSDLVPTGVPHAVTTDTKFRNYLIPKGTTIMALLTSVLHDDKEFPNPNIFDPGHFLDKNGNFKKSDYFMPFSAGKRICAGEGLARMELFLFLTTILQNFNLKSVDDLKNLNTTAVTKGIVSLPPSYQICFIPV
notes: purchased GENTEST Corporation; host or cells: baculovirus/insect cells (microsomes, SUPERSOMES)
[9]
  Km: 1.4 µM
  kcat: 0.00367 s⁻¹
